The compounds below were run on 935938-334-R-J1-PDC complex spheroid viability (assay: Anticancer human tumor 935938-334-R-J1-PDC patient-derived small intestine adenocarcinoma cell line growth inhibition [POLQ]). Settings: second compound 1 µM; first compound 10 µM; hits give low values.
Experimental: Multicellular complex tumor spheroid response to Polymerase (POL) inhibitors (novobiocin, ART-558, RP6685) in combination with a variety of drugs and investigational agents in selected tumor cell lines
The POL inhibitors (novobiocin, ART-558, and RP6685) were evaluated both individually and in combination with standard of care and investigational anticancer small molecules within a complex spheroid model of solid tumors. . Complex spheroids include a stromal component modeled by human endothelial cells (HUVEC) and fibroblasts modeled by human mesenchymal stem cells (MSCs). The concentration ranges selected for each drug and investigational agent were based upon clinically achievable concentrations if the clinical Cmax of the agent was known.
Compounds. The drugs and investigational agents: novobiocin (NSC847541), ART-558 (NSC835418), RP-6685 (NSC848927), peposertib (NSC802822), ceralasertib (NSC780249), elimusertib (NSC800525), camonsertib (NSC841442), AZD-1390 (NSC803789), olaparib (NSC753686), talazoparib (NSC767125), rucaparib (NSC756644), sotorasib (NSC818433), MRTX-1133 (NSC836407), SN-38 (NSC673596), topotecan (NSC609699), epotoside (NSC141540), doxorubicin (NSC123127), gemcitabine (NSC613327), 5-fluorouracil (NSC19893), paclitaxel (NSC125973), vemurafenib (NSC761431), MSA-2 (NSC828583), SN-011 (NSC837082), adavosertib (NSC754352), prexasertib (NSC758257), carboplatin (NSC241240) and oxaliplatin (NSC266046), were obtained from the National Cancer Institute (NCI) Developmental Therapeutics Program Chemical Repository (21). The FDA-approved anticancer drug set is available from the Developmental Therapeutics Program at https://dtp.cancer.gov/organization/dscb/obtaining/. […] The stock solutions were prepared in dimethyl sulfoxide (DMSO, Sigma-Aldrich, St. Louis, MO, cat. D2650), except for the platinum compounds which were prepared in saline (Quality Biological, Gaithersburg, MD, cat. 114-055-101), at 800-fold the tested concentration and stored at -70 degrees C prior to their use. All drugs and investigational agents were tested over a range starting from a high concentration at or near the clinical Cmax and decreasing in half-log increments. If the clinical Cmax for an agent had not been determined, the highest concentration tested was 10 microM, except for SN-38, which was tested at a high concentration of 1 microM.
Cell Culture. All cells were maintained in an incubator at 37 degrees C and 5% CO2 with 95% humidity. The PDC lines were cultured according to standard operating procedures established by the NCI PDMR (https://pdmr.cancer.gov). Table 3 of the manuscript, lists the cell lines along with the number of the three cell types plated to form the mct-spheroids and media for tumor cell growth. After thawing, all PDC lines, except 997537-175-T-J1-PDC and 415267-285-R-J2-PDC, were cultured in Matrigel-coated flasks prepared with a working solution of 1X Ham's F-12 nutrient mix, without supplementation (Thermo Fisher Scientific, cat. 11765054), 100 U/mL penicillin-streptomycin (Thermo Fisher Scientific, cat. 15140122), and 2.5% Matrigel (Corning Inc., Corning, NY, cat. 354248) for the first three passages. The two PDC lines 997537-175-T-J1-PDC and 415267-285-R-J2-PDC were cultured on uncoated flasks. The 857933-349-R-J2-PDC line was cultured in 6C/Colon 1B media containing advanced DMEM/F-12 (Thermo Fisher Scientific, cat. 12634028), 10 mM HEPES (Thermo Fisher Scientific, cat. 15630080), 1X GlutaMAX supplement (Thermo Fisher Scientific, cat. 35050061), 0.1 mg/mL primocin (InvivoGen, San Diego, CA, cat. ant-pm-2), 10% defined fetal bovine serum, heat inactivated (HyClone Laboratories Inc., Logan, UT, cat. SH30070.03HI), 50% L-WRN conditioned media (ATCC, cat. CRL-3276), 1.25 mM N-Acetyl-L-cysteine (Sigma-Aldrich, cat. A9165), 10 mM nicotinamide (Sigma-Aldrich, cat. N0636), 1X B-27 supplement (Thermo Fisher Scientific, cat. 17504044), 1X N-2 supplement (Thermo Fisher Scientific, cat. […]
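Note: spheroids exposed to drugs for seven days before viability read; 100% = DMSO vehicle control wells.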

| SMILES | viability, T/C [%] |
| --- | --- |
| CC1COCCN1c1cc(-c2ccnn2C)c2ccnc(-c3ccn[nH]3)c2n1 (centres undefined) + Cc1cccc(N(C)C(=O)C2C(O)CCN2c2nc(C)cc(C(F)(F)F)c2C#N)c1 | 22 |
| COc1cccc2c1C(=O)c1c(O)c3c(c(O)c1C2=O)CC(O)(C(=O)CO)CC3OC1CC(N)C(O)C(C)O1 (centres undefined) + Nc1ccc(C#CCN(C(=O)Cc2ncc(C(F)(F)F)cc2C(F)(F)F)c2ccc(F)cc2)nn1 | 4.86 |
| O=c1[nH]cc(F)c(=O)[nH]1 + Nc1ccc(C#CCN(C(=O)Cc2ncc(C(F)(F)F)cc2C(F)(F)F)c2ccc(F)cc2)nn1 | 61 |

Same assay, conditions: second compound 3.16 µM; first compound 0.0316 µM; hits give low values

| SMILES | viability, T/C [%] |
| --- | --- |
| CC1COCCN1c1cc(-c2ccnn2C)c2ccnc(-c3ccn[nH]3)c2n1 (centres undefined) + Cc1cccc(N(C)C(=O)C2C(O)CCN2c2nc(C)cc(C(F)(F)F)c2C#N)c1 | 83.3 |
| COc1cccc2c1C(=O)c1c(O)c3c(c(O)c1C2=O)CC(O)(C(=O)CO)CC3OC1CC(N)C(O)C(C)O1 (centres undefined) + Nc1ccc(C#CCN(C(=O)Cc2ncc(C(F)(F)F)cc2C(F)(F)F)c2ccc(F)cc2)nn1 | 52.6 |
| O=c1[nH]cc(F)c(=O)[nH]1 + Nc1ccc(C#CCN(C(=O)Cc2ncc(C(F)(F)F)cc2C(F)(F)F)c2ccc(F)cc2)nn1 | 92.2 |

Same assay, conditions: second compound 3.16 µM; first compound 0.1 µM; hits give low values

| SMILES | viability, T/C [%] |
| --- | --- |
| CC1COCCN1c1cc(-c2ccnn2C)c2ccnc(-c3ccn[nH]3)c2n1 (centres undefined) + Cc1cccc(N(C)C(=O)C2C(O)CCN2c2nc(C)cc(C(F)(F)F)c2C#N)c1 | 53.4 |
| COc1cccc2c1C(=O)c1c(O)c3c(c(O)c1C2=O)CC(O)(C(=O)CO)CC3OC1CC(N)C(O)C(C)O1 (centres undefined) + Nc1ccc(C#CCN(C(=O)Cc2ncc(C(F)(F)F)cc2C(F)(F)F)c2ccc(F)cc2)nn1 | 35.4 |
| O=c1[nH]cc(F)c(=O)[nH]1 + Nc1ccc(C#CCN(C(=O)Cc2ncc(C(F)(F)F)cc2C(F)(F)F)c2ccc(F)cc2)nn1 | 85.8 |

Same assay, conditions: second compound 3.16 µM; first compound 0.316 µM; hits give low values

| SMILES | viability, T/C [%] |
| --- | --- |
| CC1COCCN1c1cc(-c2ccnn2C)c2ccnc(-c3ccn[nH]3)c2n1 (centres undefined) + Cc1cccc(N(C)C(=O)C2C(O)CCN2c2nc(C)cc(C(F)(F)F)c2C#N)c1 | 23.5 |
| COc1cccc2c1C(=O)c1c(O)c3c(c(O)c1C2=O)CC(O)(C(=O)CO)CC3OC1CC(N)C(O)C(C)O1 (centres undefined) + Nc1ccc(C#CCN(C(=O)Cc2ncc(C(F)(F)F)cc2C(F)(F)F)c2ccc(F)cc2)nn1 | 27.9 |
| O=c1[nH]cc(F)c(=O)[nH]1 + Nc1ccc(C#CCN(C(=O)Cc2ncc(C(F)(F)F)cc2C(F)(F)F)c2ccc(F)cc2)nn1 | 86.6 |

Same assay, conditions: second compound 3.16 µM; first compound 1 µM; hits give low values

| SMILES | viability, T/C [%] |
| --- | --- |
| CC1COCCN1c1cc(-c2ccnn2C)c2ccnc(-c3ccn[nH]3)c2n1 (centres undefined) + Cc1cccc(N(C)C(=O)C2C(O)CCN2c2nc(C)cc(C(F)(F)F)c2C#N)c1 | 17.2 |
| COc1cccc2c1C(=O)c1c(O)c3c(c(O)c1C2=O)CC(O)(C(=O)CO)CC3OC1CC(N)C(O)C(C)O1 (centres undefined) + Nc1ccc(C#CCN(C(=O)Cc2ncc(C(F)(F)F)cc2C(F)(F)F)c2ccc(F)cc2)nn1 | 20.3 |
| O=c1[nH]cc(F)c(=O)[nH]1 + Nc1ccc(C#CCN(C(=O)Cc2ncc(C(F)(F)F)cc2C(F)(F)F)c2ccc(F)cc2)nn1 | 62.1 |

Same assay, conditions: second compound 3.16 µM; first compound 3.16 µM; hits give low values

| SMILES | viability, T/C [%] |
| --- | --- |
| CC1COCCN1c1cc(-c2ccnn2C)c2ccnc(-c3ccn[nH]3)c2n1 (centres undefined) + Cc1cccc(N(C)C(=O)C2C(O)CCN2c2nc(C)cc(C(F)(F)F)c2C#N)c1 | 18.5 |
| COc1cccc2c1C(=O)c1c(O)c3c(c(O)c1C2=O)CC(O)(C(=O)CO)CC3OC1CC(N)C(O)C(C)O1 (centres undefined) + Nc1ccc(C#CCN(C(=O)Cc2ncc(C(F)(F)F)cc2C(F)(F)F)c2ccc(F)cc2)nn1 | 5.88 |
| O=c1[nH]cc(F)c(=O)[nH]1 + Nc1ccc(C#CCN(C(=O)Cc2ncc(C(F)(F)F)cc2C(F)(F)F)c2ccc(F)cc2)nn1 | 61 |

Same assay, conditions: second compound 3.16 µM; first compound 10 µM; hits give low values

| SMILES | viability, T/C [%] |
| --- | --- |
| CC1COCCN1c1cc(-c2ccnn2C)c2ccnc(-c3ccn[nH]3)c2n1 (centres undefined) + Cc1cccc(N(C)C(=O)C2C(O)CCN2c2nc(C)cc(C(F)(F)F)c2C#N)c1 | 23 |
